Experimental data taken from US20090298820A1, “3-SUBSTITUTED-1H-PYRROLO[2,3-B]PYRIDINE AND 3-SUBSTITUTED-1H-PYRROLO[3,2-B]PYRIDINE COMPOUNDS, THEIR USE AS MTOR KINASE AND PI3 KINASE INHIBITORS, AND THEIR SYNTHESES” (Wyeth, priority 2008, published 2009).
Where two headings read alike, the source gives them in different places.

Legend:
PI3Kγ = PI3Kγ (Homo sapiens, UniProt P48736); experiment: PI3K-gamma fluorescence polarization assay; assay type: biochemical; conditions: read-out: PI3Kγ Median IC50
mTOR = mTOR (Homo sapiens, UniProt P42345); experiment: mTOR enzyme assay (DELFIA format, His6-S6K substrate); assay type: biochemical
PI3Kα = PI3Kα (Homo sapiens, UniProt P42336); experiment: PI3K-alpha fluorescence polarization assay; assay type: biochemical; conditions: read-out: PI3Kα Median IC50
[1] = read-out: mTOR Kinase Median IC50

Sequence of PI3Kα (P42336 whole entry, species assumed): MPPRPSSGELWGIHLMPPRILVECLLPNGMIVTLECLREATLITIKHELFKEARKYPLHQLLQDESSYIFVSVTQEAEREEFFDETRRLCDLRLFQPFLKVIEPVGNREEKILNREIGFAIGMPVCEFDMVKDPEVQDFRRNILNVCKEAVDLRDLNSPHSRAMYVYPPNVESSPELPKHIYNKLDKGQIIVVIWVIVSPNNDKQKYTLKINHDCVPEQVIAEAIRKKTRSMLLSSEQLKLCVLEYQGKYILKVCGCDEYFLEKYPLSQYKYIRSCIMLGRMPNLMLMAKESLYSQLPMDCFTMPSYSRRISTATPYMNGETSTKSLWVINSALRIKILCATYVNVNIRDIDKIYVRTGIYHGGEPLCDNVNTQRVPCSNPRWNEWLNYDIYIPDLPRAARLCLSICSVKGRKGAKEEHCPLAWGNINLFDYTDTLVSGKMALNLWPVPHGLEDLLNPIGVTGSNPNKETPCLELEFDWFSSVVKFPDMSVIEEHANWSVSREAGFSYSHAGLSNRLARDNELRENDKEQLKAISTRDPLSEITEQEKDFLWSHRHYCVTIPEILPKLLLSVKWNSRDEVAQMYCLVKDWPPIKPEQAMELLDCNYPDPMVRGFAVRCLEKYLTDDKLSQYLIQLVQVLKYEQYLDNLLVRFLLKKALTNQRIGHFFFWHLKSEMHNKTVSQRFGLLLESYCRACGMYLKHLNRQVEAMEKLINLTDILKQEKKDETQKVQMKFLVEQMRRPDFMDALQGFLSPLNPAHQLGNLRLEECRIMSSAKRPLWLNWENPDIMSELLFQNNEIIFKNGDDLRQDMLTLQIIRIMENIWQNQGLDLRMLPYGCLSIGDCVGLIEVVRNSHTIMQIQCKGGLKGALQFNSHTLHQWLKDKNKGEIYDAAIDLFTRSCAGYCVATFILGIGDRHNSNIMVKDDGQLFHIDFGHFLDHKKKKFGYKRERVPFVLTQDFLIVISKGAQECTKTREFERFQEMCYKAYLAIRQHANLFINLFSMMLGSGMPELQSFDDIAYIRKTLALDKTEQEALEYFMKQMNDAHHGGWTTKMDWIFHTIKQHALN
Sequence of PI3Kα (P27986 whole entry partner, species assumed): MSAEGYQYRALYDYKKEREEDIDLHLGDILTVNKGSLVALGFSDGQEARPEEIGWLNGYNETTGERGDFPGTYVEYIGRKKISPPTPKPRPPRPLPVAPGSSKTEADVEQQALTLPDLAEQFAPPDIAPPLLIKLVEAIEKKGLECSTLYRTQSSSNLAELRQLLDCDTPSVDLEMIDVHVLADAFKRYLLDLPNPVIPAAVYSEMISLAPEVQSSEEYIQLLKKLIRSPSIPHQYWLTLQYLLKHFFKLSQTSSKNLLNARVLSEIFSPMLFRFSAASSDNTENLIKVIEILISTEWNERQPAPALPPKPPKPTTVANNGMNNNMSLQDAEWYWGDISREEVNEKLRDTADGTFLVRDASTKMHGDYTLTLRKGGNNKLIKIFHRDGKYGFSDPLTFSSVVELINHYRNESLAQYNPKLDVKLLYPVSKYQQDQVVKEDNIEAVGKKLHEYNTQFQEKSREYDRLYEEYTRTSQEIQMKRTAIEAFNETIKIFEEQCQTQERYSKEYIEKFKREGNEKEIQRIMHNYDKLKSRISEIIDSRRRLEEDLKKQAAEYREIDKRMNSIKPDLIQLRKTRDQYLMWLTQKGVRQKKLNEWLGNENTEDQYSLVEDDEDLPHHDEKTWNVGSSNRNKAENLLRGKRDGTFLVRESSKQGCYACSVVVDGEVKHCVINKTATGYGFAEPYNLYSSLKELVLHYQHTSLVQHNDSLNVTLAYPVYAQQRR
Sequence of PI3Kγ (P48736 whole entry, species assumed): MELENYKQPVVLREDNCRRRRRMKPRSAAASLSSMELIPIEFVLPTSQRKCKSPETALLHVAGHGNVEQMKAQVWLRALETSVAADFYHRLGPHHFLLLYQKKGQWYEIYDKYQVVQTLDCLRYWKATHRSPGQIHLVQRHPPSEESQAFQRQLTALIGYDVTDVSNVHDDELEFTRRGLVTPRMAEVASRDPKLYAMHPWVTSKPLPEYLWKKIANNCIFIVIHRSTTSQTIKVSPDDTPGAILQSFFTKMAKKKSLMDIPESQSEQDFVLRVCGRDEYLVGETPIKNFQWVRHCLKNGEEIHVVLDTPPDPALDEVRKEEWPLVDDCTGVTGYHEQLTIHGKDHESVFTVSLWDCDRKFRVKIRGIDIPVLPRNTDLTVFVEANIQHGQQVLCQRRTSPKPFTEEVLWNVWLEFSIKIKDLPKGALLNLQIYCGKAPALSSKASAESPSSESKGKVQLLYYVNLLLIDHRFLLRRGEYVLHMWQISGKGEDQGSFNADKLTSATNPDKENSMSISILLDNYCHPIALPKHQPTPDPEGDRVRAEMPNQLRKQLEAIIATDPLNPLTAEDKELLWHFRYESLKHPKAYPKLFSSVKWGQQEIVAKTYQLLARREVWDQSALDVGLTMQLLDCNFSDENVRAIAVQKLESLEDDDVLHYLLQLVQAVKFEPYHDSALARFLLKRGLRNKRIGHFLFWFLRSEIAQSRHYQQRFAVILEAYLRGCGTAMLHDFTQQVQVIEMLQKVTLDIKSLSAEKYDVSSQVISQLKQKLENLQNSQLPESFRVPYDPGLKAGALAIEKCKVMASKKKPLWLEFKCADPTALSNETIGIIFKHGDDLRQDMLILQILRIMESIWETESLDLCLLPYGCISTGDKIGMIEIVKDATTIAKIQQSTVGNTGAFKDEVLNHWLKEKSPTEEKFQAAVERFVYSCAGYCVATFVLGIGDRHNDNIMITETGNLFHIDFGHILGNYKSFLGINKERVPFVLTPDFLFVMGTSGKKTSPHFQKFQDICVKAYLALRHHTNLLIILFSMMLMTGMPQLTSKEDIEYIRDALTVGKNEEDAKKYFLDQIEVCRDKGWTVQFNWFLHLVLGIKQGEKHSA

Compound | IC50 (PI3Kγ) | IC50 (mTOR; [1]) | IC50 (PI3Kα) | melting point | IC50 (mTOR)
Cn1cc(/C=C2\Oc3cccc(O)c3C2=O)c2c(N3CCC(C(=O)N4CCOCC4)CC3)ccnc21 [Compound 150, (2Z)-4-hydroxy-2-({1-methyl-4-[4-(morpholin-4-ylcarbonyl)piperidin-1-yl]-1H-pyrrolo[2,3-b]pyridin-3-yl}methylidene)-1-benzofuran-3(2H)-one] | 50 nM | 1.4 nM | 63 nM | 358 to 361 °C | –
Cn1cc(/C=C2\Oc3cccc(O)c3C2=O)c2c(N3C4CCC3COC4)ccnc21 [Compound 151, (2Z)-4-hydroxy-2-{[1-methyl-4-(3-oxa-8-azabicyclo[3.2.1]oct-8-yl)-1H-pyrrolo[2,3-b]pyridin-3-yl]methylidene}-1-benzofuran-3(2H)-one] | 49 nM | – | 19 nM | 284 to 291 °C | 2.1 nM
Cn1cc(/C=C2\Oc3cccc(O)c3C2=O)c2c(N3CCC(C(=O)N4CCCC4)CC3)ccnc21 [Compound 152, (2Z)-4-hydroxy-2-({1-methyl-4-[4-(pyrrolidin-1-ylcarbonyl)piperidin-1-yl]-1H-pyrrolo[2,3-b]pyridin-3-yl}methylidene)-1-benzofuran-3(2H)-one] | 32 nM | 0.6 nM | 31 nM | 191 to 207 °C | –
CC(=O)Nc1ccc2c(c1)C(=O)/C(=C/c1cn(C)c3nccc(-c4ccccc4)c13)O2 [Compound 154, N-{(2Z)-2-[(1-methyl-4-phenyl-1H-pyrrolo[2,3-b]pyridin-3-yl)methylidene]-3-oxo-2,3-dihydro-1-benzofuran-5-yl}acetamide] | 1070 nM | 69 nM | 1390 nM | 332 to 335 °C | –
CC(=O)Nc1ccc2c(c1)C(=O)/C(=C/c1cn(C)c3nccc(N4CC5CCC(C4)O5)c13)O2 [Compound 155, N-[(2Z)-2-{[1-methyl-4-(8-oxa-3-azabicyclo[3.2.1]oct-3-yl)-1H-pyrrolo[2,3-b]pyridin-3-yl]methylidene}-3-oxo-2,3-dihydro-1-benzofuran-5-yl]acetamide] | 306 nM | 14.5 nM | 150 nM | 275 to 285 °C (dec.) | –
Cn1cc(/C=C2\Oc3ccc(NC(=O)C(F)(F)F)cc3C2=O)c2c(-c3ccccc3)ccnc21 [Compound 156, 2,2,2-trifluoro-N-{(2Z)-2-[(1-methyl-4-phenyl-1H-pyrrolo[2,3-b]pyridin-3-yl)methylidene]-3-oxo-2,3-dihydro-1-benzofuran-5-yl}acetamide] | 6910 nM | 1650 nM | 1940 nM | 295 to 302 °C | –
Cn1cc(/C=C2\Oc3cccc(O)c3C2=O)c2c(-c3ccc(N4CC5CCC(C4)O5)cc3)ccnc21 [Compound 157, (2Z)-4-hydroxy-2-({1-methyl-4-[4-(8-oxa-3-azabicyclo[3.2.1]oct-3-yl)phenyl]-1H-pyrrolo[2,3-b]pyridin-3-yl}methylidene)-1-benzofuran-3(2H)-one] | 78 nM | 9.4 nM | 74 nM | 252 to 260 °C (dec.) | –
CN(C)C(=O)Nc1ccc2c(c1)C(=O)/C(=C/c1cn(C)c3nccc(-c4ccccc4)c13)O2 [Compound 161, 1,1-dimethyl-3-{(2Z)-2-[(1-methyl-4-phenyl-1H-pyrrolo[2,3-b]pyridin-3-yl)methylidene]-3-oxo-2,3-dihydro-1-benzofuran-5-yl}urea] | > 10000 nM | 397 nM | 5500 nM | 275 to 280 °C | –
Cn1cc(/C=C2\Oc3ccc(NS(C)(=O)=O)cc3C2=O)c2c(-c3ccccc3)ccnc21 [Compound 162, N-{(2Z)-2-[(1-methyl-4-phenyl-1H-pyrrolo[2,3-b]pyridin-3-yl)methylidene]-3-oxo-2,3-dihydro-1-benzofuran-5-yl}methanesulfonamide] | 7430 nM | > 4000 nM | 5900 nM | 257 to 262 °C | –
CN1CCN(C(=O)C2CCN(c3ccnc4c3c(/C=C3\Oc5cccc(O)c5C3=O)cn4C)CC2)CC1 [Compound 164, (2Z)-4-hydroxy-2-[(1-methyl-4-{4-[(4-methylpiperazin-1-yl)carbonyl]piperidin-1-yl}-1H-pyrrolo[2,3-b]pyridin-3-yl)methylidene]-1-benzofuran-3(2H)-one] | 131 nM | 3.1 nM | 39 nM | 239 to 244 °C | –
Cn1cc(/C=C2\Oc3ccc(NC(=O)Nc4cccnc4)cc3C2=O)c2c(N3CC4CCC(C3)O4)ccnc21 [Compound 167, 1-[(2Z)-2-{[1-methyl-4-(8-oxa-3-azabicyclo[3.2.1]oct-3-yl)-1H-pyrrolo[2,3-b]pyridin-3-yl]methylidene}-3-oxo-2,3-dihydro-1-benzofuran-5-yl]-3-pyridin-3-ylurea] | > 10000 nM | 14.3 nM | 2080 nM | 226 to 230 °C | –
CNC(=O)Nc1ccc2c(c1)C(=O)/C(=C/c1cn(C)c3nccc(N4CCC(C(=O)N(C)C)CC4)c13)O2 [Compound 168, N,N-dimethyl-1-{1-methyl-3-[(Z)-{5-[(methylcarbamoyl)amino]-3-oxo-1-benzofuran-2(3H)-ylidene}methyl]-1H-pyrrolo[2,3-b]pyridin-4-yl}piperidine-4-carboxamide] | 487 nM | 6.7 nM | 420 nM | 203 °C | –
CN(C)C(=O)C1CCN(c2ccnc3c2c(/C=C2\Oc4ccc(Br)cc4C2=O)cn3C)CC1 [Compound 169, 1-{3-[(Z)-(5-bromo-3-oxo-1-benzofuran-2(3H)-ylidene)methyl]-1-methyl-1H-pyrrolo[2,3-b]pyridin-4-yl}-N,N-dimethylpiperidine-4-carboxamide] | 1170 nM | 11.5 nM | > 10000 nM | 241 °C | –
CN(C)C(=O)C1CCN(c2ccnc3c2c(/C=C2\Oc4ccc(NC(=O)N5CCOCC5)cc4C2=O)cn3C)CC1 [Compound 170, N-[(2Z)-2-({4-[4-(dimethylcarbamoyl)piperidin-1-yl]-1-methyl-1H-pyrrolo[2,3-b]pyridin-3-yl}methylidene)-3-oxo-2,3-dihydro-1-benzofuran-5-yl]morpholine-4-carboxamide] | > 10000 nM | 91.5 nM | 3110 nM | 128 °C | –
Cn1cc(/C=C2\Oc3ccc(NC(=O)Nc4cccnc4)cc3C2=O)c2c(N3CCC(C(=O)N4CCOCC4)CC3)ccnc21 [Compound 173, 1-[(2Z)-2-({1-methyl-4-[4-(morpholin-4-ylcarbonyl)piperidin-1-yl]-1H-pyrrolo[2,3-b]pyridin-3-yl}methylidene)-3-oxo-2,3-dihydro-1-benzofuran-5-yl]-3-pyridin-3-ylurea] | > 10000 nM | 18 nM | > 10000 nM | 246 to 251 °C | –
CNC(=O)Nc1ccc2c(c1)C(=O)/C(=C/c1cn(C)c3nccc(N4CCC(C(=O)N5CCOCC5)CC4)c13)O2 [Compound 174, 1-methyl-3-[(2Z)-2-({1-methyl-4-[4-(morpholin-4-ylcarbonyl)piperidin-1-yl]-1H-pyrrolo[2,3-b]pyridin-3-yl}methylidene)-3-oxo-2,3-dihydro-1-benzofuran-5-yl]urea] | 337 nM | 16.5 nM | 337 nM | 235 to 240 °C | –
